From US20030040510A1, “Selective estrogen receptor modulators in combination with estrogens” (Endorecherche, Inc., priority 2000, published 2003)

How the values were obtained:
[1] = system: uterus and vagina of ovariectomized mice; assay: Uterine and vaginal weight in ovariectomized mice treated or not with estrone (9 days oral); type: in vivo, BALB/c mice; settings: for Inhibition of estrone-stimulated uterine weight / Inhibition of estrone-stimulated vaginal weight: 9 days, OVX mice + E1
Description: (St-Constant, Quebec, Canada) and housed 5 per cage in a temperature (23±1° C.)—and light (12 h light/day, lights on at 7:15)—controlled environment. The mice were fed rodent chow and tap water ad libitum. […] Ten mice were kept intact as controls. […] Compounds were dissolved in ethanol (4% final concentration) and administered in 0.4% methylcellulose. Mice in the intact and OVX control groups received the vehicle alone (4% ETOH-0.4% methylcellulose) during the 9-day period. The animals were killed by exsanguination at the abdominal aorta on the 11th morning following ovariectomy.

ZR-75-1 breast tumors = assay: Growth and response category of human ZR-75-1 breast tumors in OVX nude mice, 7 antiestrogens, 161 days (Example 8); type: in vivo
Description: The mice (5 per cage) were housed in vinyl cages equipped with air filter lids, which were kept in laminar airflow hoods and maintained under pathogen-limiting conditions. The photoperiod was 12 hours of light and 12 hours of darkness (lights on at 07:15). Cages, bedding and food (Agway Pro-Lab R-M-H Diet #4018) were autoclaved before use. Water was autoclaved and provided ad libitum. Bilateral ovariectomy was performed under isoflurane-induced anesthesia. […] Randomization and treatments were started one week later. […] The 17 groups included two control groups (OVX and OVX+Estrone), seven groups supplemented with an estrone implant and treated with an antiestrogen and eight other groups that received an antiestrogen alone. The estrone implants were then removed from the animals in the ovariectomized control group (OVX) and in groups that were to receive the antiestrogen alone. […] Tamoxifen was purchased from […], Israel) while toremifene citrate was purchased from Orion (Espoo, Finland). […] Animals in both control groups received 0.2 ml of the vehicle alone. The antiestrogen suspensions at the appropriate concentration were prepared each month, stored at 4° C. and used under constant agitation. Powder stock were hermetically stored at 4° C. […] Tumor response was assessed at the end of the study or at death of each animal, if it occurred during the course of the experiment. In this case, only data of mice that survived for at least half of the study (84 days) were used in the tumor response analysis.

[2] = system: ovariectomized rats supplemented with 17β-estradiol; assay: EM-652.HCl with oral 17β-estradiol for 2 weeks in OVX rats: uterus, endometrial epithelium, vagina, serum cholesterol (Example 10); type: in vivo, Sprague-Dawley rats; settings: for Reversal of the effect of E2 on uterine weight: 2 weeks
Description: Ten to twelve week-old female Sprague-Dawley rats (Crl:CD(SD)Br) (Charles River Laboratory, St-Constant, Canada) weighing 215-265 g at time of ovariectomy were used. The animals were housed individually in an environmentally-controlled room (temperature: 22±3° C.; humidity: 50±20%; 12-h light-12-h dark cycles, lights on at 07:15 h). The animals were allowed free access to tap water and a certified rodent feed (Lab Diet 5002 (pellet), Ralston Purina, St-Louis, Mo.). The experiment was conducted in an animal facility approved by the Canadian Council on Animal Care (CCAC) and the Association for Assessment and Accreditation of Laboratory Animal Care (AAALAC) in accordance with the CCAC Guide for Care and Use of Experimental Animals.
On the first day of the study, the animals of the appropriate groups were bilaterally ovariectomized (OVX) under isoflurane anesthesia. The tested compounds were then given once daily by oral gavage as a suspension in 0.4% methylcellulose (0.5 ml/rat) from day 1 to day 14 of the study. Animals of groups 1 and 2 received the vehicle alone during the same time period. On day 15 of the study, 4 animals per group were perfused with 10% buffered formalin and tissues were processed for histological examination. The other animals were killed by exsanguination at the abdominal aorta under isoflurane anesthesia. The uterus and vagina were removed, stripped of remaining fat and weighed. A specimen from each uterus was fixed in 10% buffered formalin for determination of the height of endometrial epithelial cells using a computerized-assisted program (Software Image-Pro Plus).
Total cholesterol was measured on serum samples collected from overnight fasted animals using a Boehringer Mannheim Diagnostic Hitachi 911 Analyzer (Boehringer Mannheim Diagnostic Laboratory Systems).

[3] = alone, absence of estrone, both doses used
[4] = 50 μg daily + estrone, 161 days
[5] = EM-652.HCl 3 mg/kg + E2 2 mg/kg
[6] = EM-652.HCl 10 mg/kg + E2 2 mg/kg

CC1=C(c2ccc(O)cc2)[C@H](c2ccc(OCCN3CCCCC3)cc2)Oc2cc(O)ccc21.Cl [EM-652.HCl, (S)-(+)-7-hydroxy-3-(4′-hydroxyphenyl)-4-methyl-2-(4″-(2′″-piperidinoethoxy)phenyl)-2H-1-benzopyran hydrochloride]
Inhibition of estrone-stimulated uterine weight ([1]; 1 μg daily oral): 24%
Inhibition of estrone-stimulated vaginal weight ([1]; 1 μg daily oral): 10%
Inhibition of estrone-stimulated uterine weight ([1]; 3 μg daily oral): 48%
Inhibition of estrone-stimulated vaginal weight ([1]; 3 μg daily oral): 25%
Inhibition of estrone-stimulated uterine weight ([1]; 10 μg daily oral): 72%
Inhibition of estrone-stimulated vaginal weight ([1]; 10 μg daily oral): 53%
Stimulatory effect on uterine weight [1, 3]: no significant stimulatory effect
Stimulatory effect on vaginal weight [1, 3]: no significant stimulatory effect
Complete response, of tumors (ZR-75-1 breast tumors; [4]): 17%
Partial response, of tumors (ZR-75-1 breast tumors; [4]): 17%
Progressing tumors (ZR-75-1 breast tumors; [4]): 7%
Stable response, of tumors (ZR-75-1 breast tumors; [4]): 60%
Effect on estrone-stimulated tumor growth (ZR-75-1 breast tumors; 50 μg daily oral + estrone, 23 weeks): completely prevented tumor growth
Change of ZR-75-1 tumor size compared to the OVX control group (ZR-75-1 breast tumors; 200 μg daily alone, absence of estrone, 161 days): did not significantly change
Effect on the inhibitory action of E2 on serum cholesterol ([2]; EM-652.HCl 0.01 mg/kg to 0.3 mg/kg): no statistically significant effect
Reduction of the effect of E2 on serum cholesterol ([2]; EM-652.HCl 1.0 mg/kg): 36%
Reduction of the effect of E2 on serum cholesterol ([2]; EM-652.HCl 3.0 mg/kg): 30%
Prevention of E2-stimulated endometrial epithelial height [2, 5]: 83%
Reversal of the effect of E2 on uterine weight [2, 5]: 84%
Inhibition of the stimulatory effect of E2 on vaginal weight ([2]; EM-652.HCl 3 mg/kg, statistically non significant): 50%
Effect on the effect of E2 on vaginal weight ([2]; EM-652.HCl 10 mg/kg): complete reversal
Reduction of the effect of E2 on serum cholesterol ([2]; EM-652.HCl 10 mg/kg): 50%
Prevention of E2-stimulated endometrial epithelial height [2, 6]: 93%
Reversal of the effect of E2 on uterine weight [2, 6]: 87%
Inhibitory effect on E2-stimulated vaginal weight ([2]; EM-652.HCl up to 1 mg/kg): no significant inhibitory effect
